The results in this text go back to EPA's ToxRefDB 2.

Data set [1] concerns rabbit. The note with it: Sub-acute repeat dose toxicity, new zealand white, Oral, Gavage/Intubation, dose end: 13 day, group: systemic.
In data set [2] the test system is rat. The note with it: Fertility (Segment I), Oral, Gavage/Intubation, dose end: 1 generation.
For data set [3], the system named is rat. To be noted: Prenatal developmental toxicity study, sprague dawley, Oral, Gavage/Intubation, dose end: 18 GD.
The subject of data set [4] is rat. The note with it: Fertility (Segment I), Oral, Gavage/Intubation, dose end: 1 generation, group: parental.
Data set [5] concerns rabbit. The note with it: Sub-acute repeat dose toxicity, new zealand white, Oral, Gavage/Intubation, dose end: 13 day.
Data set [6] has as its system rabbit. To be noted: Prenatal developmental toxicity study, new zealand white, Oral, Gavage/Intubation, dose end: 19 GD, group: maternal.
The subject of data set [7] is dog. The note with it: Sub-acute repeat dose toxicity, beagle, Oral, Gavage/Intubation, dose end: 4 week, group: systemic.
The test system of data set [8] is rabbit. To be noted: Prenatal developmental toxicity study; himalayan; Oral; Gavage/Intubation; dose end: 18 GD; group: maternal; systemic / in life observation / clinical signs / defecation + systemic / in life observation / clinical signs / feces, discoloration + ….
Another data set has as its system primate. The note with it: Sub-acute repeat dose toxicity, macaque, Oral, Gavage/Intubation, dose end: 4 week, group: systemic.
Data set [9] relates to dog. The note with it: Sub-acute repeat dose toxicity, beagle, Oral, Gavage/Intubation, dose end: 4 week, group: systemic. This is another data set of the same source.
Data set [10] deals with rat. The note with it: Sub-acute repeat dose toxicity; sprague dawley; Oral; Gavage/Intubation; dose end: 4 week; group: systemic; systemic / organ weight / liver / absolute + systemic / organ weight / liver / relative to body weight.
For data set [11], the system named is rat. To be noted: Prenatal developmental toxicity study; sprague dawley; Injection; Intramuscular; dose end: 14 GD; group: developmental; developmental / developmental malformation / mouth / jaw / cleft palate + developmental / developmental malformation / trunk / umbilical ….
For data set [12], the system named is rat. To be noted: Prenatal developmental toxicity study, sprague dawley, Injection, Intramuscular, dose end: 13 GD.
The mark [13] stands for this setting: systemic / in life observation / clinical signs / tarry stools.
Where [14] appears, read: systemic / in life observation / clinical signs / tarry stools + systemic / in life observation / body weight / body weight + systemic / in ….
Where [15] appears, read: group: maternal, reproductive / reproductive performance / estrous cycle / length.
The mark [16] stands for this setting: group: parental, systemic / in life observation / body weight / body weight gain + systemic / in life observation / clinical signs / salivation + systemic / ….
The mark [17] stands for this setting: group: developmental, developmental / developmental malformation / bone / delayed ossification + developmental / developmental malformation / kidney / dilated ….
Setting [18] is: group: maternal, systemic / in life observation / body weight / body weight + systemic / in life observation / clinical signs / salivation + systemic / in ….
The mark [19] stands for this setting: systemic / in life observation / body weight / body weight gain + systemic / in life observation / clinical signs / salivation.
Setting [20] is: group: maternal, reproductive / reproductive performance / aborted / aborted.
The mark [21] stands for this setting: group: systemic, systemic / in life observation / body weight / body weight + systemic / in life observation / clinical signs / abnormal feces + systemic / ….
The mark [22] stands for this setting: group: systemic, systemic / in life observation / clinical signs / abnormal feces.
Setting [23] is: reproductive / reproductive performance / aborted / aborted + systemic / in life observation / body weight / body weight gain + systemic / ….
The mark [24] stands for this setting: systemic / in life observation / clinical signs / abnormal feces.
[25] abbreviates: systemic / clinical chemistry / alanine aminotransferase (alt/sgpt) / alanine aminotransferase (alt/sgpt) + systemic / clinical chemistry / ….
[26] abbreviates: systemic / clinical chemistry / alkaline phosphatase (alp/alk) / alkaline phosphatase (alp/alk).
Where [27] appears, read: systemic / clinical chemistry / bilirubin / total bilirubin + systemic / organ weight / liver / relative to body weight + systemic / ….
The mark [28] stands for this setting: systemic / pathology microscopic / liver / granuloma + systemic / pathology microscopic / liver / infiltration cellular + systemic / ….
Setting [29] is: systemic / clinical chemistry / alkaline phosphatase (alp/alk) / alkaline phosphatase (alp/alk) + systemic / pathology microscopic / liver….
Where [30] appears, read: systemic / pathology microscopic / liver / pigmentation.
Setting [31] is: group: developmental, developmental / developmental malformation / mouth / jaw / cleft palate + developmental / developmental malformation / trunk / umbilical ….
The mark [32] stands for this setting: group: developmental, developmental / developmental malformation / mouth / jaw / cleft palate + systemic / in life observation / body weight / fetal weight.
Where [33] appears, read: group: maternal, reproductive / offspring survival early / dead fetuses / dead fetuses.

The structures appear in SMILES notation. A value given as a limit tells only on which side of the number the result lay.

In general, LOAEL refers to the lowest tested level that showed an adverse finding. The NOAEL is the highest dose or exposure tested at which no adverse effect was seen. As to `CCOc1cccc(C2(N3CCN(c4ccccc4)CC3)CCC(C)CC2)c1.CS(=O)(=O)O` (configuration not stated), the LEL with rabbit [1] (setting [13]) is 100 mg/kg/day; with rat [2] (setting [15]), 10 mg/kg/day; in the data set on rat [2] (setting [16]), 30 mg/kg/day; in the data set on rat [3] (setting [17]), 60 mg/kg/day; in the data set with rat [3] (setting [18]) it was 60 mg/kg/day; with rat [4] (systemic / in life observation / clinical signs / salivation), 30 mg/kg/day. Moreover, the results for the LEL in the data set on rabbit [5] (setting [20]), in the data set with rabbit [5] (setting [22]) and with rabbit [6] (setting [24]) were 300 mg/kg/day, 100 mg/kg/day and 15 mg/kg/day, respectively. Besides, the NEL was under 100 mg/kg/day in the data set with rabbit [1] (setting [13]); under 10 mg/kg/day with rat [2] (setting [15]); 10 mg/kg/day in the data set on rat [2] (setting [16]); 12 mg/kg/day with rat [3] (setting [18]); 10 mg/kg/day in the data set with rat [4] (setting [19]); 100 mg/kg/day with rabbit [5] (setting [20]). Also, the NEL in the data set on rabbit [5] (setting [22]) was under 100 mg/kg/day; in the data set on rabbit [6] (setting [24]), under 15 mg/kg/day. In addition, the LOAEL is over 1000 mg/kg/day in the data set with rabbit [1] (setting [14]); over 100 mg/kg/day with rat [2] (setting [15]); over 100 mg/kg/day in the data set on rat [2] (setting [16]); over 125 mg/kg/day with rat [3] (setting [17]); over 125 mg/kg/day with rat [3] (setting [18]); over 100 mg/kg/day in the data set on rat [4] (setting [19]). Further, the results for the LOAEL in the data set on rabbit [5] (setting [20]), with rabbit [5] (setting [21]) and in the data set with rabbit [6] (setting [23]) were over 500 mg/kg/day, over 500 mg/kg/day and over 300 mg/kg/day, respectively. Also, the NOAEL in the data set with rabbit [1] (setting [14]) was at least 1000 mg/kg/day; in the data set with rat [2] (setting [15]), at least 100 mg/kg/day; with rat [2] (setting [16]), at least 100 mg/kg/day; with rat [3] (setting [17]) it was at least 125 mg/kg/day; in the data set with rat [3] (setting [18]) it was at least 125 mg/kg/day; with rat [4] (setting [19]), at least 100 mg/kg/day. Further, the no observed adverse effect level (NOAEL) with rabbit [5] (setting [20]) is at least 500 mg/kg/day; in the data set on rabbit [5] (setting [21]), at least 500 mg/kg/day; in the data set with rabbit [6] (setting [23]) it was at least 300 mg/kg/day.
`CC[C@H](NC(=O)c1cc(F)ccc1[N-]S(=O)(=O)c1cccc2cccnc12)c1ccccc1.[Na+]` [AVE3295]: the LOAEL is over 300 mg/kg/day with dog [7] (setting [25]); over 1000 mg/kg/day with rabbit [8]; over 1000 mg/kg/day in the data set on primate (setting [27]); 5 mg/kg/day in the data set on dog [9] (setting [29]); over 2000 mg/kg/day in the data set with rat [10]. In addition, the NOAEL in the data set on dog [7] (setting [25]) was at least 300 mg/kg/day; with rabbit [8], at least 1000 mg/kg/day; in the data set on primate (setting [27]), at least 1000 mg/kg/day; in the data set on dog [9] (setting [29]), 1 mg/kg/day; in the data set on rat [10], at least 2000 mg/kg/day. Also, the LEL with dog [7] (setting [26]) was found to be 10 mg/kg/day; in the data set with rabbit [8], 1000 mg/kg/day; in the data set on primate (setting [28]), 60 mg/kg/day; in the data set with dog [9] (setting [30]), 1 mg/kg/day; in the data set on rat [10], 2000 mg/kg/day. For the same molecule, the NEL in the data set with dog [7] (setting [26]) was under 10 mg/kg/day; in the data set on rabbit [8], 250 mg/kg/day; in the data set with primate (setting [28]) it was under 60 mg/kg/day; in the data set with dog [9] (setting [30]), under 1 mg/kg/day; with rat [10], 315 mg/kg/day.
As to `CC1(C)O[C@@H]2C[C@H]3[C@@H]4CCC5=CC(=O)C=C[C@]5(C)[C@@]4(F)[C@@H](O)C[C@]3(C)[C@]2(C(=O)CO)O1` [Triamcinolone acetonide], in the data set on rat [11], the LEL is 0.5 mg/kg/day, the LOAEL was over 0.5 mg/kg/day, the NEL was under 0.5 mg/kg/day and the NOAEL was at least 0.5 mg/kg/day. Also, in the data set with rat [12] (setting [31]), the LOAEL was over 5 mg/kg/day and the NOAEL is at least 5 mg/kg/day. Besides, in the data set with rat [12] (setting [32]), the LEL was found to be 0.5 mg/kg/day and the NEL is under 0.5 mg/kg/day. In the data set with rat [12] (setting [33]), this molecule yielded an LEL of 2.5 mg/kg/day, an LOAEL of over 5 mg/kg/day, an NEL of 0.5 mg/kg/day and an NOAEL of at least 5 mg/kg/day.
